Test results from PMC7156412, “Inhibition of the deubiquitinase USP10 induces degradation of SYK” (British Journal of Cancer, 2020).

Assays:
[1] = tested on: FLT3; assay: Immunoblot of FLT3 protein levels in Ba/F3-FLT3-ITD cells; type: cell-based, murine; details: for Induction of FLT3 degradation: Ba/F3-FLT3-ITD cells, 24 hr, 10-20 µM; for FLT3 protein levels: all treated oncogenic FLT3-expressing cells, 24 h
Procedure: (§1) Protein lysate preparation, immunoblotting and immunoprecipitation were carried out as previously described.[21]

[2] = tested on: SYK; assay: Immunoblot of SYK protein levels in PBMCs from normal donors; type: cell-based; details: 24 h of treatment
Sequence of SYK (P48025 whole entry): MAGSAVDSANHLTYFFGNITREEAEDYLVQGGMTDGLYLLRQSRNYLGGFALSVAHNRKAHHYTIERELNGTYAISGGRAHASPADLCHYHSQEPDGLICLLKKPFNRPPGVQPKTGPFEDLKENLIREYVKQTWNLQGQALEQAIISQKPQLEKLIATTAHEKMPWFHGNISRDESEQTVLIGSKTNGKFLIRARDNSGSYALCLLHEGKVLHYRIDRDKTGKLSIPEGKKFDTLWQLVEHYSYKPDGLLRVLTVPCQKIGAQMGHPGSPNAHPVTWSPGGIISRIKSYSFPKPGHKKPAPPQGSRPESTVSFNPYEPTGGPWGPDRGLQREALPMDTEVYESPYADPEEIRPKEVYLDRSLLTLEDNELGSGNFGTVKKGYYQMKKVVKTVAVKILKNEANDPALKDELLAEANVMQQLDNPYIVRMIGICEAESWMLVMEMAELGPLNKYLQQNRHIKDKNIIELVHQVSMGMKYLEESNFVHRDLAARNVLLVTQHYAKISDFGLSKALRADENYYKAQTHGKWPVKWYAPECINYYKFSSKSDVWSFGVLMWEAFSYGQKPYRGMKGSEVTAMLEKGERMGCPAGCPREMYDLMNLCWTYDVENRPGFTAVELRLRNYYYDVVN
Procedure: as §1

[3] = tested on: Ba/F3-FLT3-ITD cells; parameters: method as in PMID 28967922; details: cited from earlier work
[4] = tested on: USP7; details: cited from earlier work
[5] = tested on: USP10; details: cited from earlier work
[6] = tested on: FLT3-ITD-positive MOLM14 cells; parameters: method as in PMID 28967922; details: cited from earlier work
[7] = tested on: SYK; assay: Immunoblot of SYK protein levels in Ba/F3-FLT3-ITD cells; type: cell-based, murine; details: 24 h of treatment
Procedure: as §1

[8] = tested on: SYK; assay: Immunoblot of SYK protein levels in MV4-11 cells; type: cell-based; details: 24 h of treatment
Procedure: as §1

[9] = tested on: SYK; assay: Immunoblot of SYK in Ba/F3-FLT3-ITD+TKD point mutant cells; type: cell-based, murine; details: Ba/F3-FLT3-ITD+TKD point mutant cells (A627T, F691L, G697R, F691I), 24 hr, 5-10 µM
Procedure: as §1

[10] = tested on: FLT3; assay: Immunoblot of FLT3 in Ba/F3-FLT3-ITD+TKD point mutant cells; type: cell-based, murine; details: Ba/F3-FLT3-ITD+TKD point mutant cells (A627T, F691L, G697R, F691I), 24 hr, 5-10 µM
Procedure: as §1

Molecule | Induction of FLT3 degradation [1] | FLT3 protein levels [1] | Effect on SYK protein levels [2] | Combination effect with crenolanib or midostaurin [3] | Inhibition of USP7 activity [4] | Inhibition of USP10 activity [5] | Combination effect with crenolanib or midostaurin [6] | Effect on SYK protein levels [7] | Effect on SYK protein levels [8] | USP10 inhibitory activity in biochemical assay ([5]; Ub-AMC as substrate, as previously determined) | Effect on SYK protein levels [9] | Effect on FLT3 protein levels [10]
HBX19818 | Induction of FLT3 degradation | lower | loss of SYK protein | synergistic effects | inhibit the activity | inhibit the activity | synergistic effects | downregulated | downregulated |  |  | 
CCCN(CCC)CCCNC(=O)c1ccc2c(Cl)c3c(nc2c1)CCCC3 [C598-0466] | Induction of FLT3 degradation |  |  |  |  |  |  | strongly inducing degradation of SYK protein |  | showing activity against USP10 |  | 
CC(=O)c1cc([N+](=O)[O-])c(Sc2ccc(F)cc2F)s1 [P22077] | Induction of FLT3 degradation | lower | loss of SYK protein |  | inhibit the activity | inhibit the activity |  | downregulated | downregulated |  | induces degradation of SYK and FLT3 | induces degradation of SYK and FLT3
